The results in this text go back to patent publication US20240376121A1, “COMPOUNDS AND USES THEREOF” (Foghorn Therapeutics Inc., priority 2021, published 2024).

SMILES strings stand for the structures. Bounds are passed on as bounds.

For test [1], the target named is T1, HiBit-BRG1 fusion protein (Homo sapiens, UniProt P51532).
T1 construct: expressed in transfected cells
Put plainly: HiBiT-BRG1 cell-based degradation assay (Nano-Glo HiBiT Lytic Detection). The conditions noted are these: stable HeLa cell line expressing HiBit-BRG1 and LgBit, 24 h incubation; for Dmax: top dose 30 μM, read-out: BRG1 HiBit Degradation Maximum (%); for DC50: read-out: BRMG1 HiBit Degradation IC50. An outline of the steps:
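Degradation was scored from HiBiT lytic luminescence, scaled between DMSO-treated wells and wells given 2 μM of a standard BRM/BRG1 degrader. Cells were a stable HeLa HiBiT-BRG1/LgBiT line dosed for 24 h, ten concentrations in 3-fold steps from 30 μM, in duplicate.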
In general terms: The HiBiT peptide binds its large partner to form an active luciferase.

Test [2] addresses T2, HiBit-BRM fusion protein (Homo sapiens, UniProt P51531).
T2 construct: expressed in transfected cells
Put plainly: HiBiT-BRM cell-based degradation assay (Nano-Glo HiBiT Lytic Detection). The conditions noted are these: stable HeLa cell line expressing HiBiT-BRM, 24 h incubation; for BRM HiBit Degradation Maximum (%): top dose 30 μM; for DC50: read-out: BRM HiBit Degradation IC50. An outline of the steps: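 Residual HiBiT-BRM in a stable HeLa line was measured by Nano-Glo lytic luminescence after 24 h compound exposure (top final dose 30 μM, 3-fold, 10 points, duplicate). Values are % degradation, scaled between DMSO-treated cells and cells given 2 μM of a known BRM/BRG1 degrader.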

T2 sequence (P51531 whole entry, the tested form may be a part): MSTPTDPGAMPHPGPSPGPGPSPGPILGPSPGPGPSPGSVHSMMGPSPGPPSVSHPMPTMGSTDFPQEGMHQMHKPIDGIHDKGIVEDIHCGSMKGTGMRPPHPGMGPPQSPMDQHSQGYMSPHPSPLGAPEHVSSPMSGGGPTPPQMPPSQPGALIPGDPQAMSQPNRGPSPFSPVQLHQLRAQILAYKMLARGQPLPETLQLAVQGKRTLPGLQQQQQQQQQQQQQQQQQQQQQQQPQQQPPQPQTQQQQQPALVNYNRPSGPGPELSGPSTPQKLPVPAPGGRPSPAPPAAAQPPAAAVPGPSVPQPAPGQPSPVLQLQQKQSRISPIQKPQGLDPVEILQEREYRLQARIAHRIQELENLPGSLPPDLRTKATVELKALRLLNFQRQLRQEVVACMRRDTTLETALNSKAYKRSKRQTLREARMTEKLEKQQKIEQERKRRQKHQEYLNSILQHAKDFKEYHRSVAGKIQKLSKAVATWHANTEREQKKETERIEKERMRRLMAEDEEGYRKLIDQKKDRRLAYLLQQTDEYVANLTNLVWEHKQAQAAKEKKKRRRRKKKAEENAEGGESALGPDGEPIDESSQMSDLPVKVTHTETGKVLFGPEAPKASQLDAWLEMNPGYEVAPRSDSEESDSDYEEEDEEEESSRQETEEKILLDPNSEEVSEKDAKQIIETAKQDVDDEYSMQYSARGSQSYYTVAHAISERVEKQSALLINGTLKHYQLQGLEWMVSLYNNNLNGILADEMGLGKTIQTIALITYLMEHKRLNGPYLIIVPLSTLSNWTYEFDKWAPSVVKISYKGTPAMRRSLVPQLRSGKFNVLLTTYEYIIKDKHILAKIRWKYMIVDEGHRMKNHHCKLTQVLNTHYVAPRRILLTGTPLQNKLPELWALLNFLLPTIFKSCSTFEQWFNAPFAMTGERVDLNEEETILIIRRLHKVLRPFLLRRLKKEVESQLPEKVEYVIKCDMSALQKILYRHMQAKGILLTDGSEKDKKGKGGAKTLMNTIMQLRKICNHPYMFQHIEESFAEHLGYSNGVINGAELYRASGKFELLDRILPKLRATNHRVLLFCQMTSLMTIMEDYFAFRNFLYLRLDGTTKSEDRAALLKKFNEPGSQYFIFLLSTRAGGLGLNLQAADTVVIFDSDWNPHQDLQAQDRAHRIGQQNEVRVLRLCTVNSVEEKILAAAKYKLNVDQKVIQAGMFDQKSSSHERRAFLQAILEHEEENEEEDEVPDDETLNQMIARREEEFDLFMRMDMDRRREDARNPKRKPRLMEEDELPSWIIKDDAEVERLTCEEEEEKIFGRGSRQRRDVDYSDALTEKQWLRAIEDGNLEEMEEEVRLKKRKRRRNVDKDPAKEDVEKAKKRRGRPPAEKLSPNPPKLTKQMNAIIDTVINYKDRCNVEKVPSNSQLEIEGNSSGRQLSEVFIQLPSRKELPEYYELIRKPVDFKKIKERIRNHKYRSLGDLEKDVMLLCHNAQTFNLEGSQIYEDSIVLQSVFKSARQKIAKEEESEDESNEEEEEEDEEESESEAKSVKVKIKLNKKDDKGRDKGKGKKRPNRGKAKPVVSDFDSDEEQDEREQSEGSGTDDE
T1 sequence (P51532 whole entry, the tested form may be a part): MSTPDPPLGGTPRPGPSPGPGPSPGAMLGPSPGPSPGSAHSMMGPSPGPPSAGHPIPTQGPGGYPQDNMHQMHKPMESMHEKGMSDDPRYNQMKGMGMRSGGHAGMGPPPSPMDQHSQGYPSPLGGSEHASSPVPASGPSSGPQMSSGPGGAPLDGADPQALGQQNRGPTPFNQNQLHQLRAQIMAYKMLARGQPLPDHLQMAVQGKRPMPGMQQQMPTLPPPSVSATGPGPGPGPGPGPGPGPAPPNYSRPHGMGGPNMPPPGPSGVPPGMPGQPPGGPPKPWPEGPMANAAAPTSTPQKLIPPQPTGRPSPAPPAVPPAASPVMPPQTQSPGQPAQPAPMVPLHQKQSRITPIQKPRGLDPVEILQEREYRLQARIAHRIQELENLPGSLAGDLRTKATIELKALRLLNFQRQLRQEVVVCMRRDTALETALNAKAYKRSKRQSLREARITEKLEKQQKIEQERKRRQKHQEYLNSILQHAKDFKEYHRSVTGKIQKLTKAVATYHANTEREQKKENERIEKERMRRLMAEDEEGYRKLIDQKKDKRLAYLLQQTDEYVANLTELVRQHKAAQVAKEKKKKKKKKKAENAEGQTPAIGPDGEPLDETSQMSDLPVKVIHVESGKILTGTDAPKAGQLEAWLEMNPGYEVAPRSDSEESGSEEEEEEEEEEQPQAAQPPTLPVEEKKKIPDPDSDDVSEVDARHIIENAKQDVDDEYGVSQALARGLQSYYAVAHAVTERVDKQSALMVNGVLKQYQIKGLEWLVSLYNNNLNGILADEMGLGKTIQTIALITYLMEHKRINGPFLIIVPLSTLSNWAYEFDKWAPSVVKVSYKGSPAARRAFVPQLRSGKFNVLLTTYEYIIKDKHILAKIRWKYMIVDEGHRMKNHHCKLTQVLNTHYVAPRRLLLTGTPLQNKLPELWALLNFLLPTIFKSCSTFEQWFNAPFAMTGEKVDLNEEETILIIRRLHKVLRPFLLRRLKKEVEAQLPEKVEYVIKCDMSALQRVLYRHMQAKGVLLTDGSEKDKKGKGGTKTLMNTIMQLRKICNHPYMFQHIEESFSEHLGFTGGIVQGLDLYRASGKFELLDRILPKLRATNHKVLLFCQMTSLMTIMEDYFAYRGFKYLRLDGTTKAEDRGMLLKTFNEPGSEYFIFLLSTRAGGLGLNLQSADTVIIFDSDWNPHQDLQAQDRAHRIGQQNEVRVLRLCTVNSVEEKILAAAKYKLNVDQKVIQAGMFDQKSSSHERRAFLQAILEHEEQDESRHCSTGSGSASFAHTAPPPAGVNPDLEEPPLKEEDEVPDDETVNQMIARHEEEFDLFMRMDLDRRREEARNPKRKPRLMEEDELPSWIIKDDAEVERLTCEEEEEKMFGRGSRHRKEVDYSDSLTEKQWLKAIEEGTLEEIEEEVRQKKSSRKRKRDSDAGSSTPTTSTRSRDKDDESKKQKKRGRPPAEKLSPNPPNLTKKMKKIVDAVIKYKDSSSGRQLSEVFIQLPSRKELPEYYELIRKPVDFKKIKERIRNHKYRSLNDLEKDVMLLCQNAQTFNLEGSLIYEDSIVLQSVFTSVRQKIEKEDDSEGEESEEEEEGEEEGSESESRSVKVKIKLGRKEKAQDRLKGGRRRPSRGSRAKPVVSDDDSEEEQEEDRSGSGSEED

On to `Cc1ncsc1-c1ccc([C@H](C)NC(=O)[C@@H]2C[C@@H](O)CN2C(=O)[C@@H](c2cc(OCCN3CCC(N4CCC(c5sc6nnc(-c7ccccc7O)cc6c5C)CC4)CC3)no2)C(C)C)cc1` [Compound 107, (2S,4R)-4-hydroxy-1-((R)-2-(3-(2-(4-(3-(2-hydroxyphenyl)-5-methylthieno[2,3-c]pyridazin-6-yl)-[1,4′-bipiperidin]-1′-yl)ethoxy)isoxazol-5-yl)-3-methylbutanoyl)-N-((S)-1-(4-(4-methylthiazol-5-yl)phenyl)ethyl)pyrrolidine-2-carboxamide], for which, in test [1], the Dmax is less than 50% and the DC50 was no less than 1000 nM. Moreover, in test [2], the “BRM HiBit Degradation Maximum (%)” value is on record as “A (“A” indicates maximum degradation ≥ 75%)” and the DC50 was no less than 10 nM.
In the case of `Cc1ncsc1-c1ccc([C@H](C)NC(=O)[C@@H]2C[C@@H](O)CN2C(=O)[C@@H](c2cc(N3CCC(CN4CC(c5sc6nnc(-c7ccccc7O)cc6c5C)C4)CC3)no2)C(C)C)cc1` [Compound 108, (2S,4R)-4-hydroxy-1-((R)-2-(3-(4-((3-(3-(2-hydroxyphenyl)-5-methylthieno[2,3-c]pyridazin-6-yl)azetidin-1-yl)methyl)piperidin-1-yl)isoxazol-5-yl)-3-methylbutanoyl)-N-((S)-1-(4-(4-methylthiazol-5-yl)phenyl)ethyl)pyrrolidine-2-carboxamide], in test [1], the Dmax was less than 50% and the DC50 is no less than 1000 nM. Moreover, in test [2], the “BRM HiBit Degradation Maximum (%)” value was “A (“A” indicates maximum degradation ≥ 75%)” and the DC50 is no less than 10 nM.
The like results for `Cc1ncsc1-c1ccc([C@H](C)NC(=O)[C@@H]2C[C@@H](O)CN2C(=O)[C@@H](c2cc(OCCN3CCc4sc5nnc(-c6ccccc6O)cc5c4C3)no2)C(C)C)cc1` [Compound 109, (2S,4R)-4-hydroxy-1-((R)-2-(3-(2-(3-(2-hydroxyphenyl)-7,8-dihydropyrido[3′,4′:4,5]thieno[2,3-c]pyridazin-6(5H)-yl)ethoxy)isoxazol-5-yl)-3-methylbutanoyl)-N-((S)-1-(4-(4-methylthiazol-5-yl)phenyl)ethyl)pyrrolidine-2-carboxamide] were, in that order, less than 50%, no less than 1000 nM, “C (“C” indicates maximum degradation < 50%)” and no less than 1000 nM.
`Cc1ncsc1-c1ccc([C@H](C)NC(=O)[C@@H]2C[C@@H](O)CN2C(=O)[C@@H](c2cc(OCCN3CC(Cc4c(C)sc5nnc(-c6ccccc6O)cc45)C3)no2)C(C)C)cc1` [Compound 110, (2S,4R)-4-hydroxy-1-((R)-2-(3-(2-(3-((3-(2-hydroxyphenyl)-6-methylthieno[2,3-c]pyridazin-5-yl)methyl)azetidin-1-yl)ethoxy)isoxazol-5-yl)-3-methylbutanoyl)-N-((S)-1-(4-(4-methylthiazol-5-yl)phenyl)ethyl)pyrrolidine-2-carboxamide]: in test [1], the Dmax is less than 50% and the DC50 was no less than 1000 nM. In addition, in test [2], the “BRM HiBit Degradation Maximum (%)” value is “B (“B” indicates maximum degradation ≥ 50%)” and the DC50 is no less than 1000 nM.
With `Cc1ncsc1-c1ccc([C@H](C)NC(=O)[C@@H]2C[C@@H](O)CN2C(=O)[C@@H](c2cc(OCCN3CC(Cc4csc5nnc(-c6ccccc6O)cc45)C3)no2)C(C)C)cc1` [Compound 111, (2S,4R)-4-hydroxy-1-((R)-2-(3-(2-(3-((3-(2-hydroxyphenyl)thieno[2,3-c]pyridazin-5-yl)methyl)azetidin-1-yl)ethoxy)isoxazol-5-yl)-3-methylbutanoyl)-N-((S)-1-(4-(4-methylthiazol-5-yl)phenyl)ethyl)pyrrolidine-2-carboxamide], in test [1], the Dmax was less than 50% and the DC50 is no less than 1000 nM. In test [2], the “BRM HiBit Degradation Maximum (%)” value was “C (“C” indicates maximum degradation < 50%)” and the DC50 was no less than 1000 nM.
Turning to `Cc1ncsc1-c1ccc([C@H](C)NC(=O)[C@@H]2C[C@@H](O)CN2C(=O)[C@@H](c2cc(N(C)CCN3CC(c4cc5nnc(-c6ccccc6O)cc5s4)C3)no2)C(C)C)cc1` [Compound 112, (2S,4R)-4-hydroxy-1-((R)-2-(3-((2-(3-(3-(2-hydroxyphenyl)thieno[3,2-c]pyridazin-6-yl)azetidin-1-yl)ethyl)(methyl)amino)isoxazol-5-yl)-3-methylbutanoyl)-N-((S)-1-(4-(4-methylthiazol-5-yl)phenyl)ethyl)pyrrolidine-2-carboxamide], in test [1], the Dmax is less than 50% and the DC50 was no less than 1000 nM. Moreover, in test [2], the “BRM HiBit Degradation Maximum (%)” value was “B (“B” indicates maximum degradation ≥ 50%)” and the DC50 was no less than 100 nM.
On to `Cc1ncsc1-c1ccc([C@H](C)NC(=O)[C@@H]2C[C@@H](O)CN2C(=O)[C@@H](c2cc(N3CCC(N4CC(c5sc6nnc(-c7ccccc7O)cc6c5C)C4)CC3)no2)C(C)C)cc1` [Compound 113, (2S,4R)-4-hydroxy-1-((R)-2-(3-(4-(3-(3-(2-hydroxyphenyl)-5-methylthieno[2,3-c]pyridazin-6-yl)azetidin-1-yl)piperidin-1-yl)isoxazol-5-yl)-3-methylbutanoyl)-N-((S)-1-(4-(4-methylthiazol-5-yl)phenyl)ethyl)pyrrolidine-2-carboxamide], for which, in test [1], the Dmax is less than 50% and the DC50 is no less than 1000 nM. For the same molecule, in test [2], the “BRM HiBit Degradation Maximum (%)” value was “A (“A” indicates maximum degradation ≥ 75%)” and the DC50 was less than 10 nM.
